This note sets out measurements from ChEMBL document CHEMBL4840340, “Design, synthesis, kinetic, molecular dynamics, and hypoglycemic effect characterization of new and potential selective benzimidazole derivatives as Protein Tyrosine Phosphatase 1B inhibitors” (Bioorg Med Chem, 2021).

SMILES strings stand for the structures. The source made the active and inactive calls. No cut-off for these calls is given here.

Test [1] deals with T1, Tyrosine-protein phosphatase non-receptor type 1 (Homo sapiens) (UniProt P18031).
T1 sequence (whole entry): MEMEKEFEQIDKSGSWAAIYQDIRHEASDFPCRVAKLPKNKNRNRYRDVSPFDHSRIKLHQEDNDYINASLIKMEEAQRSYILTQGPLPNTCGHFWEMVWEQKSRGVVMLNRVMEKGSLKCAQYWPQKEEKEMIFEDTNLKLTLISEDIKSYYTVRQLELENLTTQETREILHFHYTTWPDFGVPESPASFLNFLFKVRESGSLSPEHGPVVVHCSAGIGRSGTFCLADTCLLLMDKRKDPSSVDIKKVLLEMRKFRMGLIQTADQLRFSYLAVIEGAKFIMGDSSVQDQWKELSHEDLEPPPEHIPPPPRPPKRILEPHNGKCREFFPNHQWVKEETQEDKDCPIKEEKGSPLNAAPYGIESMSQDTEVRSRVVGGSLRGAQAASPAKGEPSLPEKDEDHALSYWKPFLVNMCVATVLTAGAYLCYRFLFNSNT
Nature of the test: Inhibition of PTP1B (unknown origin) at 40 uM using pNPP as substrate by spectrophotometric analysis.

Test [2] has as its target T1, Tyrosine-protein phosphatase non-receptor type 1 (Homo sapiens). Nature of the test: Mixed type inhibition of PTP1B (unknown origin) using varying levels of pNPP as substrate by Lineweaver-Burk plot analysis.
For a further test, the system named is Rattus norvegicus. Nature of the test: Hypoglycemic activity in high fat diet-fed induced type 2 diabetic mellitus Wistar rat model assessed as blood glucose level at 60 mg/kg, ip by glucose tolerance test. The class given is functional.
The target of test [3] is T2, Tyrosine-protein phosphatase non-receptor type 1 (Homo sapiens, UniProt P18031).
T2 sequence (P18031 whole entry): T1 sequence (whole entry)
As to the kind of experiment: Inhibition of PTP1B (unknown origin) assessed as inhibition constant using pNPP as substrate by spectrophotometric analysis.

Test [4] has as its target T1, Tyrosine-protein phosphatase non-receptor type 1 (Homo sapiens). As to the kind of experiment: Inhibition of PTP1B (unknown origin) assessed as inhibition constant for uncompetitive inhibition using pNPP as substrate by spectrophotometric analysis.
For test [5] the target is unchanged. Nature of the test: Inhibition of PTP1B (unknown origin) at 20 uM using pNPP as substrate by spectrophotometric analysis.

Take `O=C(CSc1nc2cc(Oc3cccc4ccccc34)ccc2[nH]1)Nc1ccc(C(=O)O)cc1`: the inhibition (usually the relative decrease from the control value, in per cent) in test [1] came out at 40%. Also, in test [2], the inhibition result was “Active”. Moreover, the Activity in the test with Rattus norvegicus was 19%. The Ki (usually a dissociation constant, usually derived from enzyme kinetics or from competition with a known ligand) in test [3] is 30.2 µM. Moreover, the alphaKi in test [4] was 124 µM.

Turning to `Cc1cc(NC(=O)CSc2nc3cc(Oc4ccc5ccccc5c4)ccc3[nH]2)on1`, the inhibition entry in test [5] is “inactive”.

For the compound `O=C(CSc1nc2cc(Oc3ccc4ccccc4c3)ccc2[nH]1)Nc1ccc(C(=O)O)cc1`, the inhibition in test [1] turned out to be 30%. Moreover, the inhibition result in test [2] was “Active”. For the same compound, in the test on Rattus norvegicus, the Activity came to 23%. In addition, the Ki in test [3] was 35.2 µM. Also, the alphaKi in test [4] was found to be 113 µM.

As to `O=C(CSc1nc2cc(Oc3cccc4ccccc34)ccc2[nH]1)Nc1nccs1`, the inhibition result in test [5] is “inactive”.

For `O=C(CSc1nc2cc(Oc3ccc4ccccc4c3)c(Cl)cc2[nH]1)Nc1nccs1`, the inhibition result in test [5] is “inactive”.

For `CCOC(=O)c1ccc(NC(=O)CSc2nc3cc(Oc4ccc5ccccc5c4)ccc3[nH]2)cc1`, in test [5], the inhibition entry was “inactive”.

For the compound `CCOc1cc2nc(SCC(=O)Nc3ccc(C(=O)O)cc3)[nH]c2cc1Cl`, the inhibition in test [1] was 0%.

In turn, `O=C(CSc1nc2cc(Oc3ccc4ccccc4c3)c(Cl)cc2[nH]1)Nc1ccc(C(=O)O)cc1` came in with an inhibition in test [1] of 75%. Moreover, the inhibition result in test [2] is “Active”. For the same compound, in the test with Rattus norvegicus, the Activity is 28%. Further, the Ki in test [3] came out at 12.6 µM. In addition, the alphaKi in test [4] was determined as 37.8 µM.

Regarding `CCOC(=O)c1ccc(NC(=O)CSc2nc3cc(Oc4cccc5ccccc45)ccc3[nH]2)cc1`, the inhibition entry in test [5] was “inactive”.

`CCOC(=O)c1csc(NC(=O)CSc2nc3cc(Oc4ccc5ccccc5c4)ccc3[nH]2)n1`: the inhibition result in test [5] was “inactive”.

For the compound `O=C(CSc1nc2cc(Oc3ccc4ccccc4c3)ccc2[nH]1)Nc1nccs1`, the inhibition result in test [5] is “inactive”.

For the compound `O=C(CSc1nc2cc(Oc3cccc4ccccc34)ccc2[nH]1)Nc1ccccc1C(=O)O`, in test [1], the inhibition is 45%. Moreover, the inhibition entry in test [2] is “Active”. Besides, the Activity with Rattus norvegicus came out at 15%. The Ki in test [3] turned out to be 23.3 µM. For the same compound, in test [4], the alphaKi stood at 60.6 µM.
